Data on one molecule can be found in patent US9452117B2 (priority 2011, dated 2016).

The test system of assay [1] is Human skeletal muscle cells. In kind it is cell-based.
In assay [2] the test system is Large^myd mice. The assay is described as follows: Body weight change and muscle weight of Large^myd mice. In kind it is in vivo. Conditions: 40 mg/kg body weight daily, not on weekends, 3 months. How it is done: The body weight change and muscle weight of treated Large^myd mice was also evaluated. Large^myd mice (at age of 10 weeks, male:female=1:1) received Compound D2 (40 mg/kg body weight) daily. No treatment on weekends. […] The muscle weight gain for the TA and EDL muscles are summarized below.

Assay [3] deals with human skin cells. In kind it is cell-based.

For `CCCC(CCC)CO[N+](=O)[O-]` [Compound D2, 2-propylpentyl nitrate], the “calcification (calcium-45 accumulation)” value is “reduce calcification” in assay [1] and “significant reduction” in assay [3]. In assay [2] (control 0.015 ± 0.001), this molecule gave an EDL muscle mass of 0.017 ± 0.001 gram. In assay [2] (control 0.048 ± 0.004), this molecule returned a TA muscle mass of 0.054 ± 0.004 gram. Moreover, the Body weight increase in assay [2] (control 2%) is recorded as 13%;.
